Columns and labels:
[1] = molecular target: T1, rat AMPK-α1 kinase domain (Rattus norvegicus, UniProt P54645, T183D); assay: kinase assay of bacterially expressed α1 kinase domain; type: biochemical; conditions: bacterially expressed (GST fusion; T172D mutant); data not shown
T1 construct: a bacterially expressed GST fusion of the rat AMPK-α1 kinase domain; GST; made in house; host or cells: bacteria

[2] = molecular target: T2, recombinant α1β1γ1 complex with β1 GBD mutations (W100G/W133A and others) (Rattus norvegicus, UniProt P80386, W100G/W133A); assay: recombinant AMPK with GBD point mutations in β1, assayed in immunoprecipitates; type: biochemical; conditions: 20 mM; Figure 5D
T2 construct: we made mutations in full-length β1 coexpressed with α1 and γ1 in CCL13 cells; made in house; host or cells: human CCL13 cells, co-transfected; isolated by anti-myc immunoprecipitation
T2 sequence (P80386 2-270 W100G/W133A): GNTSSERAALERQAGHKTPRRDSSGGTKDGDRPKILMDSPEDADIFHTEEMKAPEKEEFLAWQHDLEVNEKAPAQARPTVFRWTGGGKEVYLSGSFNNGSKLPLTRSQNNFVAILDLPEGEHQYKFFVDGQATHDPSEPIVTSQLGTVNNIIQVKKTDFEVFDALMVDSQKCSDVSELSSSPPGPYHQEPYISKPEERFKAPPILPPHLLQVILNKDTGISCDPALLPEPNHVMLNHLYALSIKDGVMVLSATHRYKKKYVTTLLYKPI
T2 sequence (P54645 whole entry partner): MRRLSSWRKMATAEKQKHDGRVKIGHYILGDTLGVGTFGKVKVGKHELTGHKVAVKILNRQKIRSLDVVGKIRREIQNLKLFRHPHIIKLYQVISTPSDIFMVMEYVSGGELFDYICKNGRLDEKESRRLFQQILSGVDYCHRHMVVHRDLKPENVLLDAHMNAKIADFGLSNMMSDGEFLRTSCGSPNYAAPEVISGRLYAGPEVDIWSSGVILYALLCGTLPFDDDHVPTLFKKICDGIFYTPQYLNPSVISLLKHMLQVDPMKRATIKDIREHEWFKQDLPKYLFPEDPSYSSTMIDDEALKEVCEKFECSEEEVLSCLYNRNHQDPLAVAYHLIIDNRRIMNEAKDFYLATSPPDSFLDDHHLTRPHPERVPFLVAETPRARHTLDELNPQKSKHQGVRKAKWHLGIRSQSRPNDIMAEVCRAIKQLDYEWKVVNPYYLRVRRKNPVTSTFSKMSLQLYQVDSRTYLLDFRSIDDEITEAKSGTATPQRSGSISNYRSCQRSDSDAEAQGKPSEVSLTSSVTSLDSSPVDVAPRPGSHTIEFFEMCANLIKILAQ
T2 sequence (P80385 whole entry partner): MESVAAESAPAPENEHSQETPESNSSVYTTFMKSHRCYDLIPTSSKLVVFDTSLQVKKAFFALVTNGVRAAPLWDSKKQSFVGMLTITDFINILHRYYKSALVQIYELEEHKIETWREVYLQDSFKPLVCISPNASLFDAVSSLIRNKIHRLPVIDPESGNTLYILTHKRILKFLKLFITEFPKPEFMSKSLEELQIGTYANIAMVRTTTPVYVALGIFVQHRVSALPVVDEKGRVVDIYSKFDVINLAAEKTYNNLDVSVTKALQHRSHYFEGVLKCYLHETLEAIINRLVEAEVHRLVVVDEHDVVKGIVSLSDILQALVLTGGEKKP
Source text: To test whether mutations that interfered with the binding of glycogen to the GBD also affected inhibition of AMPK by glycogen, we made mutations in full-length β1 coexpressed with α1 and γ1 in CCL13 cells, isolated the complex by immunoprecipitation via the myc tag on α1, and assayed the kinase activity in the presence and absence of glycogen. The activities were adjusted to correct for slight variation in recovery of the α1 subunit assessed by blotting (inset in Figure 3A). […] Because all of these assays were conducted in resuspended immunoprecipitates, the degree of inhibition of the wild-type was < 50%, as discussed in the previous section. […]
Figure 3 Effect of β Subunit Mutations on Inhibition of Recombinant AMPK Complexes by Glycogen (A) Myc-α1, γ1, and β1 with the wild-type sequence or the indicated mutations were expressed in CCL13 cells, immunoprecipitated, and assayed ± bovine liver glycogen (200 mM glucose equivalents); results are mean ± SEM (n = 3). […] (C) Myc-α1, γ1, and β1 with the wild-type sequence or with W100G/W133A mutations were expressed in CCL13 cells, immunoprecipitated using anti-myc (left) or anti-FLAG (right) antibodies, and analyzed by western blotting using anti-myc antibodies (top panels) or a mixture of anti-β1 and -γ1 antibodies (bottom panels). […]

T1 sequence (P54645 27-279 T183D): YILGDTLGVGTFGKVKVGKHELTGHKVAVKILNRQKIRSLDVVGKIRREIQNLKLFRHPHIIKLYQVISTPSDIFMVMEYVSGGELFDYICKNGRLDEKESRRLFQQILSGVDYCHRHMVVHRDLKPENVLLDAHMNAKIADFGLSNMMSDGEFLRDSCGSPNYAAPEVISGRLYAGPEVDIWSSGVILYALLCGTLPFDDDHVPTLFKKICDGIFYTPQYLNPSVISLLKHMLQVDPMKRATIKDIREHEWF

OC[C@H]1O[C@H](OC[C@H]2OC(O)[C@H](O)[C@@H](O)[C@@H]2O)[C@H](O)[C@@H](O)[C@@H]1O (some centres unmarked) [isomaltose]
inhibition of isolated α1 kinase domain [1]: did not inhibit | inhibition of W100G/W133A mutant [2]: not

Source: PMC2642990, “The Glycogen-Binding Domain on the AMPK β Subunit Allows the Kinase to Act as a Glycogen Sensor” (Cell Metabolism, 2009)
